Results from publication PMC10815578 (International Journal of Molecular Sciences, 2024).
“And” between values parts separate entries of the source, which are not always exact repeats. Equal entries are not always repeated. Where two headings read alike, the source gives them in different places.

Assays:
OATP4C1 = target: T1, OATP4C1 (Homo sapiens, UniProt Q6ZQN7); assay: Inhibition of OATP4C1-mediated T3 uptake in OATP4C1/MDCKII cells; conditions: for inhibition at 10 min, 100 µM / inhibition at 10 min, 50 µM: human, pH 7.4, probe T3 (1 µM); for alteration of OATP4C1-mediated transport (in words): 100 µM (theaflavin 50 µM); for inhibition at 10 min, 50 µM: curcumin inhibition of OATP4C1-mediated transport, 50 µM curcumin
T1 sequence (Q6ZQN7 1-724): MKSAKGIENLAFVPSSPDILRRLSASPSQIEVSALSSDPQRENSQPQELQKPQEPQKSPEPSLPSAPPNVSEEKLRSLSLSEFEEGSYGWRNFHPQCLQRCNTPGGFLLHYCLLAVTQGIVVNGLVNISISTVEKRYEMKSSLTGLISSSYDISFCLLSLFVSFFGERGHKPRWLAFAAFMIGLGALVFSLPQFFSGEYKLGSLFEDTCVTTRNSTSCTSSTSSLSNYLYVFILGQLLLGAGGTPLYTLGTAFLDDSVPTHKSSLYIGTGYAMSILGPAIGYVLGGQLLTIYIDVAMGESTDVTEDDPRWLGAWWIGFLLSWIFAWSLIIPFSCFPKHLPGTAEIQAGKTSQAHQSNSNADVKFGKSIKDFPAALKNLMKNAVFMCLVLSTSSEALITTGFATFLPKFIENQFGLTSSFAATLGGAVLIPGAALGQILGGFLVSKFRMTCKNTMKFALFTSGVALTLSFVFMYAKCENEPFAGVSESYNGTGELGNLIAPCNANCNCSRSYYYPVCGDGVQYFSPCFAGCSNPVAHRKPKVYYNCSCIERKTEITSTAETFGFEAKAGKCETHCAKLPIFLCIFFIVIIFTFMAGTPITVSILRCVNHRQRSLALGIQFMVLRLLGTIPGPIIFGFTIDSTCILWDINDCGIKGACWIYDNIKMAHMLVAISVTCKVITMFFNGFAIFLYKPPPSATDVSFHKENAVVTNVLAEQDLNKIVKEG

OAT1 = conditions: Supplementary table, cited from earlier work
OAT3 = conditions: Supplementary table, cited from earlier work
OATP2B1 = conditions: Supplementary table, ref previous reports (superscript numbers), cited from earlier work; for IC50: read-out: OATP2B1 IC50
OATP1B3 = conditions: cited from earlier work; for IC50: read-out: OATP1B3 IC50
OATP1B1 = conditions: cited from earlier work; for OATP1B1 inhibition degree: ref 1 of the supplement
[1] = OATP4C1 inhibition degree, 100 µM, Supplementary table
[2] = Supplementary table, ref previous reports (superscript numbers)
[3] = read-out: OATP1B1 IC50, Supplementary table, ref previous reports (superscript numbers)
[4] = ref previous reports (superscript numbers)

Which results are given for Oc1cc(O)c2cc(O)c(-c3ccc(O)c(O)c3)[o+]c2c1 [Cyanidin, Cyanidin chloride]?
OATP4C1 inhibition or elevation (class) (OATP4C1; Supplementary table): Yes; inhibition at 10 min, 100 µM (OATP4C1; [1]): 24%

Which results are given for O=C(O[C@@H]1Cc2c(O)cc(O)cc2O[C@@H]1c1cc(O)c(O)c(O)c1)c1cc(O)c(O)c(O)c1 [EGCG, epigallocatechin-3-gallate]?
Ki (OAT1; ref 27 of the supplement, read-out: OAT1 Ki (asterisk)): 334 ± 58 µM; Ki (OAT3; ref 27 of the supplement, read-out: OAT3 Ki (asterisk)): 162 ± 29 µM; IC50 (OATP2B1): 101 ± 9 µM; OATP1B3 inhibition or elevation (class) (OATP1B3; Supplementary table, ref 25 of the supplement): Elevation; IC50 (OATP1B3; [2]): 8.4 ± 0.6 µM; EC50 (OATP1B3; read-out: OATP1B3 elevation EC50, mean ± S.E., ref 25 of the supplement): 10.5 ± 1.6 µM; alteration of OATP4C1-mediated transport (in words) (OATP4C1; 1 µM T3, 10 min, without AA): did not inhibit; OATP4C1 inhibition or elevation (class) (OATP4C1; Supplementary table): No; IC50 (OATP1B1; [3]): 14.1 µM and 7.8 µM

Which “OATP4C1 inhibition or elevation (class)” value (OATP4C1; Supplementary table) does the source give for COc1ccc([C@@H]2CC(=O)c3c(O)cc(O[C@@H]4O[C@H](CO[C@@H]5O[C@@H](C)[C@H](O)[C@@H](O)[C@H]5O)[C@@H](O)[C@H](O)[C@H]4O)cc3O2)cc1O [Hesperidin, hesperidin] here?
Its value is “No”.

For O=c1c(O[C@@H]2O[C@H](CO)[C@H](O)[C@H](O)[C@H]2O)c(-c2ccc(O)c(O)c2)oc2cc(O)cc(O)c12 [Hyperoside], which IC50 (OATP2B1) is on record?
Its IC50 is 29.4 ± 1.5 µM.

What about the “OATP4C1 inhibition or elevation (class)” value (OATP4C1; Supplementary table) of the same compound?
Its value is “No”.

Which “OATP4C1 inhibition or elevation (class)” value (OATP4C1; Supplementary table) does the source give for O=c1c(O)c(-c2cc(O)c(O)c(O)c2)oc2cc(O)cc(O)c12 [Myricetin, myricetin] here?
Its value is “No”.

Which IC50 (OATP1B3; [2]) does the source give for C[C@@H]1O[C@@H](O[C@H]2[C@H](Oc3cc(O)c4c(c3)O[C@H](c3ccc(O)cc3)CC4=O)O[C@H](CO)[C@@H](O)[C@@H]2O)[C@H](O)[C@H](O)[C@H]1O [Naringin, naringin] here?
Its IC50 is 197.5 ± 1.1 µM.

What about the “OATP4C1 inhibition or elevation (class)” value (OATP4C1; Supplementary table) of the same compound?
The value was “No”.

What about the OATP1B1 inhibition degree (OATP1B1; 250 µM) of the same compound?
Its OATP1B1 inhibition degree is < 50%.

And the “OATP1B1 inhibition or elevation (class)” value (OATP1B1; [2])?
Its value is “Yes”.

With C[C@@H]1O[C@@H](OC[C@H]2O[C@@H](Oc3c(-c4ccc(O)c(O)c4)oc4cc(O)cc(O)c4c3=O)[C@H](O)[C@@H](O)[C@@H]2O)[C@H](O)[C@H](O)[C@H]1O [Rutin, rutin] as the compound, how does the IC50 (OATP2B1) read?
Its IC50 is 60.7 ± 1.2 µM.

What about the IC50 (OATP1B3; [2]) of the same compound?
The IC50 was 111.5 ± 1.1 µM.

What about the “OATP4C1 inhibition or elevation (class)” value (OATP4C1; Supplementary table) of the same compound?
The value was “No”.

What about the OATP1B1 elevation degree (OATP1B1; 50 µM, ref 2 of the supplement) of the same compound?
Its OATP1B1 elevation degree is 81.1%.

What about the OATP1B1 inhibition degree (OATP1B1; 150 µM) of the same compound?
The OATP1B1 inhibition degree was < 50%.

What about the “OATP1B1 inhibition or elevation (class)” value (OATP1B1; [2]) of the same compound?
The value was “Elevation”.

Which Ki (OATP2B1; read-out: OATP2B1 Ki (asterisk)) does the source give for O=c1c(O)cc([C@H]2Oc3cc(O)cc(O)c3C[C@H]2O)cc2c([C@H]3Oc4cc(O)cc(O)c4C[C@H]3O)cc(O)c(O)c12 [Theaflavin, theaflavin] here?
The Ki was 8.2 ± 1.7 µM.

And the “alteration of OATP4C1-mediated transport (in words)” value (OATP4C1; 1 µM T3, 10 min, without AA)?
The value was “did not inhibit”.

And the “OATP4C1 inhibition or elevation (class)” value (OATP4C1; Supplementary table)?
Its value is “No”.

With O=c1cc(-c2ccc(O)cc2)oc2cc(O)cc(O)c12 [apigenin] as the compound, how does the IC50 (OAT1; [4]) read?
The IC50 was 0.212 ± 0.01 µM.

And the IC50 (OAT3; [4])?
Its IC50 is 0.41 ± 0.157 µM.

And the Ki (OATP1B3; read-out: OATP1B3 Ki (asterisk), Supplementary table, ref previous reports (superscript numbers))?
Its Ki is 16.7 ± 1.6 µM.

What about the “inhibition of OATP4C1-mediated transport” value (OATP4C1; 100 µM compound, 1 µM T3, 10 min, 37 °C, without AA) of the same compound?
Its value is 66%.

What about the “OATP4C1 inhibition or elevation (class)” value (OATP4C1; Supplementary table) of the same compound?
The value was “Yes”.

And the inhibition at 10 min, 100 µM (OATP4C1; [1])?
The inhibition at 10 min, 100 µM was 54%.

What about the inhibition at 10 min, 100 µM (OATP4C1; inhibition of OATP4C1-mediated transport, 100 µM compound, 1 µM T3, 10 min, 37 °C, without AA) of the same compound?
The inhibition at 10 min, 100 µM was ≥ 50%.

And the IC50 (OATP1B1; [3])?
Its IC50 is 53.4 ± 2.1 µM.

And the Ki (OATP1B1; read-out: OATP1B1 Ki (asterisk), Supplementary table, ref previous reports (superscript numbers))?
The Ki was 0.6 ± 0.2 µM.

With O=C(O)/C=C/c1ccc(O)c(O)c1 [caffeic acid, Caffeic acid] as the compound, how does the “alteration of OATP4C1-mediated transport (in words)” value (OATP4C1; 1 µM T3, 10 min, without AA) read?
Its value is “did not inhibit”.

And the “OATP4C1 inhibition or elevation (class)” value (OATP4C1; Supplementary table)?
Its value is “No”.

With COc1cc(/C=C/C(=O)CC(=O)/C=C/c2ccc(O)c(OC)c2)ccc1O [curcumin] as the compound, how does the inhibition at 10 min, 50 µM (OATP4C1; absence of AA, 1 µM T3, 10 min) read?
The inhibition at 10 min, 50 µM was 33%.

What about the inhibition at 10 min, 50 µM (OATP4C1; presence of 10, 100 and 1000 µM AA, 1 µM T3, 10 min) of the same compound?
Its inhibition at 10 min, 50 µM is 63 to 67%.

What about the IC50 (OATP1B1; read-out: IC50 OATP1B1 transport, no antioxidant used) of the same compound?
Its IC50 is 3.8 µM.

What about the IC50 (OATP1B1; [3]) of the same compound?
Its IC50 is 3.81 µM.
